Source: patent publication US20100130408A1, “USE OF MODIFIED CYCLOSPORINS” (priority 2006, published 2010)

Experiments:
[1] = biological target: T1, human recombinant cyclophilin (Homo sapiens, UniProt P62937); assay: competitive ELISA, cyclophilin on coated BSA-cyclosporin A, reference cyclosporin A; settings: scale: log10
[2] = tested on: Balb/c spleen cells; assay: Mixed Lymphocyte Reaction (MLR); assay type: cell-based, mice; settings: percentage of the activity relative to Cyclosporin A
Procedure: A cyclosporin is considered to be non-immunosuppressive when it has an activity in the Mixed Lymphocyte Reaction (MLR) of no more than 5%, preferably no more than 2%, that of cyclosporin A. The Mixed Lymphocyte Reaction is described by T. Meo in “Immunological Methods”, L. Lefkovits and B. Peris, Eds., Academic Press, N.Y. pp. 227-239 (1979). Spleen cells (0.5×106) from Balb/c mice (female, 8-10 weeks) are co-incubated for 5 days with […] irradiated (2000 reds) or mitomycin C treated spleen cells from CBA mice (female, 8-10 weeks). The irradiated allogeneic cells induce a proliferative response in the Balb/c spleen cells which can be measured by labeled precursor incorporation into the DNA. […] The IC50 found for the test compound in the MLR is compared with that found for cyclosporin A in a parallel experiment. In addition, non-immunosuppressive cyclosporins lack the capacity of inhibiting CN and the downstream NF-AT pathway.

[3] = biological target: T1, human recombinant cyclophilin; assay: competitive ELISA cyclophilin binding test (Binding Ratio); settings: log to the base 10 of IC50 test compound / IC50 cyclosporin A
Procedure: A cyclosporin is considered as binding to cyclophilin if it binds to human recombinant cyclophilin at least one fifth as well as does cyclosporin A in the competitive ELISA test described by Quesniaux in Eur. J. Immunol. 1987 17 1359-1365. In this test, the cyclosporin to be tested is added during the incubation of cyclophilin with coated BSA-cyclosporin A and the concentration required to give a 50% inhibition of the control reaction without competitor is calculated (IC50). The results are expressed as the Binding Ratio (BR), which is the log to the base 10 of the ratio of the IC50 of the test compound and the IC50 in a simultaneous test of cyclosporin A itself.

[4] = tested on: HSCs; settings: cited from earlier work
[5] = tested on: HCV; settings: Watashi et al., Hepatology (2003); cited from earlier work

T1 sequence (P62937 whole entry): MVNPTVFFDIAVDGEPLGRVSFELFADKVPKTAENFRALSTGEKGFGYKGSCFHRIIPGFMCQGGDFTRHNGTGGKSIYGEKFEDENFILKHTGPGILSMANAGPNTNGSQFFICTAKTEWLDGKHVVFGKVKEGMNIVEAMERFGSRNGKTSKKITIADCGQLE

[MeVal]^4-Ciclosporin (peptide)
Binding Ratio (BR) [1]: 0.1

[Melle]^4-Ciclosporin (peptide)
Binding Ratio (BR) [1]: -0.2

[MeAla]^6-Ciclosporin (peptide)
Binding Ratio (BR) [1]: -0.4

[y-hydroxy-MeLeu]^9-Ciclosporin (peptide)
Binding Ratio (BR) [1]: 0.15

[y-hydroxy-MeLeu]^4-Ciclosporin (peptide)
Binding Ratio (BR) [1]: 0.4

[MeVal]^5-Ciclosporin (peptide)
Binding Ratio (BR) [1]: 0.4

[y-hydroxy-MeLeu]^4-Ciclosporin
IR = Immunosuppressive Ratio [2]: < 1% | Binding Ratio (BR) [3]: 0.4

[Melle]^4-Ciclosporin
IR = Immunosuppressive Ratio [2]: < 1% | Binding Ratio (BR) [3]: −0.2

[Ethyl-lle]^4-Ciclosporin
IR = Immunosuppressive Ratio [2]: < 2% | Binding Ratio (BR) [3]: 0.1

[MeAla]^6-Ciclosporin
IR = Immunosuppressive Ratio [2]: 3.2% | Binding Ratio (BR) [3]: −0.4

[8'-hydroxy-MeBmt]^1-Ciclosporin (peptide)
Binding Ratio (BR) [1]: 0.35

[Ethyl-Val]^4-Ciclosporin (peptide)
Binding Ratio (BR) [1]: 0

[y-hydroxy-MeLeu]^9-Ciclosporin
IR = Immunosuppressive Ratio [2]: 2.9% | Binding Ratio (BR) [3]: 0.15

[8′-hydroxy-MeBmt]^1-Ciclosporin
IR = Immunosuppressive Ratio [2]: 1.8% | Binding Ratio (BR) [3]: 0.35

[Ethyl-lle]^4-Ciclosporin (peptide)
Binding Ratio (BR) [1]: 0.1

[Ethyl-Val]^4-Ciclosporin
IR = Immunosuppressive Ratio [2]: < 2% | Binding Ratio (BR) [3]: 0

[MeVal]^5-Ciclosporin
IR = Immunosuppressive Ratio [2]: 5.3% | Binding Ratio (BR) [3]: 0.4

[MeVal]^4-Ciclosporin
IR = Immunosuppressive Ratio [2]: < 1% | Binding Ratio (BR) [3]: 0.1

C=CC[C@@H]1/C=C(\C)C[C@H](C)C[C@H](OC)[C@H]2O[C@@](O)(C(=O)C(=O)N3CCCC[C@H]3C(=O)O[C@H](/C(C)=C/[C@@H]3CC[C@@H](O)[C@H](OC)C3)[C@H](C)[C@@H](O)CC1=O)[C@H](C)C[C@@H]2OC [tacrolimus]
reduction of collagen production ([4]; 12.5 nM (10 ng/ml), previously reported in Nakamuta et al): does not significantly reduces collagen production | cell growth and collagen production in HSCs ([4]; previous evaluation of immunosuppressive drugs): did not have such effects | replication of HCV in vitro [5]: did not show this effect

[dihydro-MeBmt]^1-[y-hydroxy-MeLeu]^4-Ciclosporin (peptide)
Binding Ratio (BR) [1]: 0.1

[dihydro-MeBmt]^1-[y-hydroxy-MeLeu]^4-Ciclosporin
IR = Immunosuppressive Ratio [2]: < 1% | Binding Ratio (BR) [3]: 0.1
